Results: the supplement of paper PMC10733146

What was measured:
Assay in all cases: viability relative to DMSO control (fraction); higher = less drug effect (more viable cells)
Conditions in all cases: 48 h
[1] = test system: primary AML patient cells (S021)
Outline: (§1)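 Viability is given as CellTiter-Glo luminescence relative to the median of 16 inner DMSO wells. Fresh or cryopreserved primary mononuclear tumour cells from blood, bone marrow (both Ficoll-isolated) or processed lymph node were plated at 4 × 10^4 cells per well in 384-well plates against five pre-plated compound concentrations, one well each. Incubation lasted 48 h at 37 °C and 5% CO2 in RPMI-1640 with penicillin/streptomycin, L-glutamine and human serum.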

[2] = test system: primary AML patient cells (S060)
Outline: as §1

[3] = test system: primary AML patient cells (S009)
Outline: as §1

[4] = test system: primary AML patient cells (S081)
Outline: as §1

[5] = test system: primary AML patient cells (S089)
Outline: as §1

[6] = test system: primary AML patient cells (S071)
Outline: as §1

[7] = test system: primary AML patient cells (S017)
Outline: as §1

[8] = test system: primary MCL patient cells (S068)
Outline: as §1

[9] = test system: primary AML patient cells (S025)
Outline: as §1

[10] = test system: primary AML patient cells (S002)
Outline: as §1

[11] = test system: primary AML patient cells (S072)
Outline: as §1

[12] = test system: primary B-PLL patient cells (S016)
Outline: as §1

[13] = test system: primary BL patient cells (S005)
Outline: as §1

[14] = test system: primary DLBCL patient cells (S082)
Outline: as §1

[15] = test system: primary MCL patient cells (S053)
Outline: as §1

[16] = test system: primary AML patient cells (S055)
Outline: as §1

[17] = test system: primary AML patient cells (S037)
Outline: as §1

[18] = test system: primary AML patient cells (S091)
Outline: as §1

[19] = test system: primary T-PLL patient cells (S008)
Outline: as §1

[20] = test system: primary CLL patient cells (S043)
Outline: as §1

Work on `COc1ccc(C2=N[C@@H](c3ccc(Cl)cc3)[C@@H](c3ccc(Cl)cc3)N2C(=O)N2CCNC(=O)C2)c(OC(C)C)c1` [Nutlin-3a] yielded a viability ([1]; 0.032 µM) of 0.972, a viability ([1]; 0.16 µM) of 0.978 and a viability ([1]; 0.8 µM) of 0.73. It also gave a viability ([1]; 4 µM) of 0.328, a viability ([1]; 20 µM) of 0.2 and a viability ([2]; 0.032 µM) of 1.02. It also gave a viability ([2]; 0.16 µM) of 0.99, a viability ([2]; 0.8 µM) of 1.03 and a viability ([2]; 4 µM) of 1.01. The viability ([2]; 20 µM) was 0.974, the viability ([3]; 0.032 µM) was 0.875 and the viability ([3]; 0.16 µM) was 0.89. The viability ([3]; 0.8 µM) was 0.744, the viability ([3]; 4 µM) was 0.621 and the viability ([3]; 20 µM) was 0.493. The viability ([4]; 0.032 µM) was 0.997, the viability ([4]; 0.16 µM) was 0.979 and the viability ([4]; 0.8 µM) was 1.03. For the same compound, the viability ([4]; 4 µM) was 1.02, the viability ([4]; 20 µM) was 0.783 and the viability ([5]; 0.032 µM) was 1.07. The viability ([5]; 0.16 µM) was 1.01, the viability ([5]; 0.8 µM) was 1.01 and the viability ([5]; 4 µM) was 0.802. It also gave a viability ([5]; 20 µM) of 0.511, a viability ([6]; 0.032 µM) of 0.982 and a viability ([6]; 0.16 µM) of 0.78. For the same compound, the viability ([6]; 0.8 µM) was 0.342, the viability ([6]; 4 µM) was 0.117 and the viability ([6]; 20 µM) was 0.0641. For the same compound, the viability ([7]; 0.032 µM) was 1.05, the viability ([7]; 0.16 µM) was 0.979 and the viability ([7]; 0.8 µM) was 1.03. It also gave a viability ([7]; 4 µM) of 1.03, a viability ([7]; 20 µM) of 1.08 and a viability ([8]; 0.032 µM) of 1.17. The viability ([8]; 0.16 µM) was 0.988, the viability ([8]; 0.8 µM) was 0.987 and the viability ([8]; 4 µM) was 0.929. It also gave a viability ([8]; 20 µM) of 0.949, a viability ([9]; 0.032 µM) of 0.961 and a viability ([9]; 0.16 µM) of 0.947. It also gave a viability ([9]; 0.8 µM) of 0.788, a viability ([9]; 4 µM) of 0.346 and a viability ([9]; 20 µM) of 0.0996. It also gave a viability ([10]; 0.032 µM) of 0.891, a viability ([10]; 0.16 µM) of 0.91 and a viability ([10]; 0.8 µM) of 0.726. For the same compound, the viability ([10]; 4 µM) was 0.401, the viability ([10]; 20 µM) was 0.268 and the viability ([11]; 0.032 µM) was 1.04. For the same compound, the viability ([11]; 0.16 µM) was 0.956, the viability ([11]; 0.8 µM) was 0.875 and the viability ([11]; 4 µM) was 0.78. The viability ([11]; 20 µM) was 0.693, the viability ([12]; 0.032 µM) was 1.06 and the viability ([12]; 0.16 µM) was 0.946. The viability ([12]; 0.8 µM) was 1.02, the viability ([12]; 4 µM) was 0.733 and the viability ([12]; 20 µM) was 0.101. It also gave a viability ([13]; 0.032 µM) of 0.962, a viability ([13]; 0.16 µM) of 0.887 and a viability ([13]; 0.8 µM) of 1.01. It also gave a viability ([13]; 4 µM) of 0.91, a viability ([13]; 20 µM) of 0.827 and a viability ([14]; 0.032 µM) of 1.07. For the same compound, the viability ([14]; 0.16 µM) was 1.02, the viability ([14]; 0.8 µM) was 1.1 and the viability ([14]; 4 µM) was 1.04. The viability ([14]; 20 µM) was 1.12, the viability ([15]; 0.032 µM) was 1.01 and the viability ([15]; 0.16 µM) was 0.896. The viability ([15]; 0.8 µM) was 0.738, the viability ([15]; 4 µM) was 0.433 and the viability ([15]; 20 µM) was 0.282. It also gave a viability ([16]; 0.032 µM) of 1.03, a viability ([16]; 0.16 µM) of 1.02 and a viability ([16]; 0.8 µM) of 0.977. The viability ([16]; 4 µM) was 0.911, the viability ([16]; 20 µM) was 0.306 and the viability ([17]; 0.032 µM) was 0.982. For the same compound, the viability ([17]; 0.16 µM) was 0.974, the viability ([17]; 0.8 µM) was 0.964 and the viability ([17]; 4 µM) was 0.742. For the same compound, the viability ([17]; 20 µM) was 0.421, the viability ([18]; 0.032 µM) was 0.988 and the viability ([18]; 0.16 µM) was 0.84. It also gave a viability ([18]; 0.8 µM) of 0.62, a viability ([18]; 4 µM) of 0.404 and a viability ([18]; 20 µM) of 0.365. It also gave a viability ([19]; 0.032 µM) of 1, a viability ([19]; 0.16 µM) of 0.972 and a viability ([19]; 0.8 µM) of 0.963. For the same compound, the viability ([19]; 4 µM) was 0.583, the viability ([19]; 20 µM) was 0.205 and the viability ([20]; 0.032 µM) was 1.05. It also gave a viability ([20]; 0.16 µM) of 1.01, a viability ([20]; 0.8 µM) of 1.04 and a viability ([20]; 4 µM) of 0.894. It also gave a viability ([20]; 20 µM) of 0.322.
